Tested on: H9P83 cells on MATRIGEL and H9P44 cells on MEFs
Test: Microarray analysis of gene expression after definitive endoderm formation (Table IV)
Assay type: cell-based, human
Method: Controls for each group included cells plated on […]-coated dishes and cultured in MEF-conditioned medium or cells plated on MEFs and cultured in ES medium.
Sample preparation, hybridization, and image analysis were performed according to the Affymetrix Human Genome U133 Plus 2.0 Array. Following normalization and a log transformation, data analysis was performed using OmniViz® software (MA) and […] (VizXLabs, WA). The variability within each treatment and among the different treatments was compared using the Pearson correlation coefficient. […] Significant differences in gene expression between the samples were evaluated using analysis of variance and an F-test with adjusted P-value (Benjamini and Hochberg correction) of ≤0.05. Only genes with a present call were included in the analysis.

[1] = microarray, H9P44 on MEFs, DE stage, 5 days of treatment
[2] = microarray, H9P83 on Matrigel, DE stage, 5 days of treatment

## Activin A: a member of the TGFβ superfamily; growth factor (R&D Systems) used to differentiate human embryonic stem cells
H9P83 on Matrigel-DE stage, after 5 days of treatment, undifferentiated H9P83 on Matrigel 4.03
  SCG5 (NM_003020) gene expression: 2.53
H9P83 on Matrigel-DE stage, after 5 days of treatment, undifferentiated H9P83 on Matrigel 4.26
  C20orf118 (BF437747) gene expression: 1.99
H9P83 on Matrigel-DE stage, after 5 days of treatment, undifferentiated H9P83 on Matrigel 4.28
  C20orf118 (AV715309) gene expression: 1.89
H9P83 on Matrigel-DE stage, after 5 days of treatment, undifferentiated H9P83 on Matrigel 4.83
  LECT1 (NM_007015) gene expression: 2.27
H9P83 on Matrigel-DE stage, after 5 days of treatment, undifferentiated H9P83 on Matrigel −0.28
  SCNN1G (AI985987) gene expression: −0.99
H9P83 on Matrigel-DE stage, after 5 days of treatment, undifferentiated H9P83 on Matrigel −0.80
  PCDH8 (NM_002590) gene expression: −0.83
H9P83 on Matrigel-DE stage, after 5 days of treatment, undifferentiated H9P83 on Matrigel −0.90
  TMEM16A (NM_018043) gene expression: −1.93
H9P83 on Matrigel-DE stage, after 5 days of treatment, undifferentiated H9P83 on Matrigel −1.15
  ATP5S (BE968806) gene expression: −3.03
H9P83 on Matrigel-DE stage, after 5 days of treatment, undifferentiated H9P83 on Matrigel −1.16
  SDK2 (N23651) gene expression: −2.65
H9P83 on Matrigel-DE stage, after 5 days of treatment, undifferentiated H9P83 on Matrigel −1.37
  PAK7 (AB040812) gene expression: −3.89
H9P83 on Matrigel-DE stage, after 5 days of treatment, undifferentiated H9P83 on Matrigel −2.03
  IFIH1 (NM_022168) gene expression: −2.76
[1]
  gene expression ADAMTS5 (NM_007038), H9P44 on MEFs-DE stage: 1.11
  gene expression AF116676 (PRO1957 mRNA), H9P44 on MEFs-DE stage: 4.23
  gene expression AI016316 (ESTs), H9P44 on MEFs-DE stage: 0.25
  gene expression AI222435 (ESTs), H9P44 on MEFs-DE stage: −0.33
  gene expression AK057525 (cDNA FLJ32963), H9P44 on MEFs-DE stage: 4.80
  gene expression BE327172 (v-jun avian sarcoma virus 17 oncogene homolog), H9P44 on MEFs-DE stage: 3.57
  gene expression C9orf19 (AA284532), H9P44 on MEFs-DE stage: 4.93
  gene expression CD99 (U82164), H9P44 on MEFs-DE stage: 6.36
  gene expression CDKN1A (NM_000389), H9P44 on MEFs-DE stage: 4.16
  gene expression CNN1 (NM_001299), H9P44 on MEFs-DE stage: 5.14
  gene expression COL22A1 (AW241910), H9P44 on MEFs-DE stage: 1.90
  gene expression CREB5 (AI819043), H9P44 on MEFs-DE stage: 1.80
  gene expression CXCL1 (NM_001511), H9P44 on MEFs-DE stage: 2.39
  gene expression DNAJB2 (NM_006736), H9P44 on MEFs-DE stage: 3.75
  gene expression DNAJC15 (NM_013238), H9P44 on MEFs-DE stage: 5.58
  gene expression EDG3 (AA534817), H9P44 on MEFs-DE stage: 4.58
  gene expression EMP3 (NM_001425), H9P44 on MEFs-DE stage: 3.13
  gene expression FLNC (NM_001458), H9P44 on MEFs-DE stage: 3.39
  gene expression FN1 (AK026737), H9P44 on MEFs-DE stage: 7.39
  gene expression FN1 (BC005858), H9P44 on MEFs-DE stage: 7.37
  gene expression GADD45A (NM_001924), H9P44 on MEFs-DE stage: 5.38
  gene expression GNA14 (NM_004297), H9P44 on MEFs-DE stage: 2.95
  gene expression HIST1H2BK (BC000893), H9P44 on MEFs-DE stage: 4.81
  gene expression IGSF4 (NM_014333), H9P44 on MEFs-DE stage: 3.79
  gene expression JUN (BG491844), H9P44 on MEFs-DE stage: 5.91
  gene expression KLF6 (AB017493), H9P44 on MEFs-DE stage: 4.87
  gene expression MFAP5 (U37283), H9P44 on MEFs-DE stage: 1.36
  gene expression MYL4 (M36172), H9P44 on MEFs-DE stage: 4.11
  gene expression PALLD (AK025843), H9P44 on MEFs-DE stage: 3.29
  gene expression PDGFC (AB033831), H9P44 on MEFs-DE stage: 0.21
  gene expression PLK2 (NM_006622), H9P44 on MEFs-DE stage: 5.19
  gene expression ST3GAL1 (NM_003033), H9P44 on MEFs-DE stage: 2.74
  gene expression TRDN (AA192306), H9P44 on MEFs-DE stage: 0.57
  gene expression TTC29 (AF345910), H9P44 on MEFs-DE stage: 0.91
  gene expression X58851 (MLC1emb gene), H9P44 on MEFs-DE stage: 4.04
[2]
  gene expression ADAMTS5 (NM_007038), H9P83 on Matrigel-DE stage: 1.80
  gene expression AF116676 (PRO1957 mRNA), H9P83 on Matrigel-DE stage: 3.31
  gene expression AI016316 (ESTs), H9P83 on Matrigel-DE stage: 1.19
  gene expression AI222435 (ESTs), H9P83 on Matrigel-DE stage: −0.73
  gene expression AK057525 (cDNA FLJ32963), H9P83 on Matrigel-DE stage: 4.45
  gene expression BE327172 (v-jun avian sarcoma virus 17 oncogene homolog), H9P83 on Matrigel-DE stage: 2.94
  gene expression C9orf19 (AA284532), H9P83 on Matrigel-DE stage: 4.12
  gene expression CD99 (U82164), H9P83 on Matrigel-DE stage: 5.69
  gene expression CDKN1A (NM_000389), H9P83 on Matrigel-DE stage: 4.20
  gene expression CNN1 (NM_001299), H9P83 on Matrigel-DE stage: 5.75
  gene expression COL22A1 (AW241910), H9P83 on Matrigel-DE stage: 1.15
  gene expression CREB5 (AI819043), H9P83 on Matrigel-DE stage: 2.63
  gene expression CXCL1 (NM_001511), H9P83 on Matrigel-DE stage: 2.95
  gene expression DNAJB2 (NM_006736), H9P83 on Matrigel-DE stage: 3.46
  gene expression DNAJC15 (NM_013238), H9P83 on Matrigel-DE stage: 3.79
  gene expression EDG3 (AA534817), H9P83 on Matrigel-DE stage: 3.28
  gene expression EMP3 (NM_001425), H9P83 on Matrigel-DE stage: 3.90
  gene expression FLNC (NM_001458), H9P83 on Matrigel-DE stage: 4.17
  gene expression FN1 (AK026737), H9P83 on Matrigel-DE stage: 6.85
  gene expression FN1 (BC005858), H9P83 on Matrigel-DE stage: 6.86
  gene expression GADD45A (NM_001924), H9P83 on Matrigel-DE stage: 5.04
  gene expression GNA14 (NM_004297), H9P83 on Matrigel-DE stage: 4.52
  gene expression HIST1H2BK (BC000893), H9P83 on Matrigel-DE stage: 3.99
  gene expression IGSF4 (NM_014333), H9P83 on Matrigel-DE stage: 4.12
  gene expression JUN (BG491844), H9P83 on Matrigel-DE stage: 5.45
  gene expression KLF6 (AB017493), H9P83 on Matrigel-DE stage: 4.02
  gene expression MFAP5 (U37283), H9P83 on Matrigel-DE stage: 1.87
  gene expression MYL4 (M36172), H9P83 on Matrigel-DE stage: 3.30
  gene expression PALLD (AK025843), H9P83 on Matrigel-DE stage: 3.38
  gene expression PDGFC (AB033831), H9P83 on Matrigel-DE stage: 0.63
  gene expression PLK2 (NM_006622), H9P83 on Matrigel-DE stage: 5.88
  gene expression ST3GAL1 (NM_003033), H9P83 on Matrigel-DE stage: 1.68
  gene expression TRDN (AA192306), H9P83 on Matrigel-DE stage: 0.02
  gene expression TTC29 (AF345910), H9P83 on Matrigel-DE stage: 1.53
  gene expression X58851 (MLC1emb gene), H9P83 on Matrigel-DE stage: 2.75

— patent US11708562B2, “Differentiation of human embryonic stem cells” (Janssen Biotech, Inc., priority 2006, dated 2023)
